Data set [1] can be described thus: Chemical stability in PBS buffer pH 7.4. Type of data set: physicochemical. The settings on record: phosphate-buffered saline, 0.01M PBS pH 7.4, 37° C., read-out: Stability in PBS buffer, pH 7.4 t1/2. The procedure:
Chemical stability of select compounds was evaluated under physiological pH conditions (0.01M Phosphate-Buffered Saline, pH 7.4) for up to 24 h. Stock solutions of each compound (10 mM) were prepared freshly in DMSO. Each compound was incubated at a final concentration of 10 μM (1% DMSO) in pre-heated buffer (0.01M Phosphate-Buffered Saline (PBS), pH 7.4 at 37° C.). The sample solutions were divided into aliquots in glass vials (pre-heated at 37° C.) for each time point. The samples were maintained at 37° C. in the UPLC/MS Autosampler during the study (no shaking). A reference solution of each compound (final concentration: 10 μM at 1% DMSO) in pre-heated CH3CN (37° C.) was prepared from the stock solutions (10 mM in DMSO). The reference solutions were maintained at 37° C. in the UPLC/MS Autosampler during the study (no shaking). An internal standard (100 nM) was added to the sample and reference solutions. For each time point, the samples were analyzed directly by LC/MS without any further sample preparation. The samples were analyzed (triplicate injection) by monitoring the MS trace by Multiple Reaction Monitoring (MRM). The compound concentration (expressed as %) was calculated by dividing the peak area at each time point by the peak area at t=0 min. The reference solution was analyzed at the beginning (t=0 min.), and at the end of the study (t=24 h). The apparent half-lives (t1/2) of the disappearance of compound were calculated by a one-phase decay equation using a non-linear regression of compound concentration versus time.
The analyses were performed on a Waters ACQUITY UPLC/MS TQD system consisting of a TQD (Triple Quadropole Detector) Mass Spectrometer equipped with an Electrospray Ionization interface and a Photodiode Array Detector. The analyses were run on an ACQUITY UPLC BEH C18 1.7 μm 2.1×50 mm column with a VanGuard BEH C18 1.7 μm pre-column at 40° C. The mobile phase was 0.1% HCOOH in H2O (A) and 0.1% HCOOH in CH3CN (B) using a linear gradient: 0-0.2 min.: 5% B, 0.2-2.2 min.: 5-95% B, 2.2-2.3 min.: 95-5% B, 2.3-3 min.: 5% B with flow rate at 0.5 mL/min. […]

In another data set the target is r-NAAA (Rattus norvegicus (Rat), UniProt Q5KTC7). Put plainly: r-NAAA inhibition, rat lung lysosomal NAAA preparation, UPLC/MS. Type of data set: biochemical. The settings on record: for inhibition at 3 µM: read-out: r-NAAA % inhib. @ 3 μM. The procedure: Lysosomal NAAA protein preparation were obtained by homogenizing male Sprague-Dawley rat lungs (Charles River) in 20 mM Tris-HCl buffer pH 7.4 containing 0.32M sucrose. Samples were centrifuged at 800×g for 15 minutes at 4° C. Supernatants were then centrifuged at 12,000 g for 30 minutes at 4° C. Pellets were then resuspended in PBS pH 7.4 and subjected to a freeze/thaw cycle at −80° C. The suspension was finally centrifuged at 105,000×g for 1 hour at 4° C. The supernatant was then used in the enzymatic assay.
NAAA protein preparation was pre-incubated with various concentrations of test compounds or vehicle control in 100 mM NaH2PO4/Citrate buffer, 1% Triton-X, 3 mM DTT (pH 4.5) for 30 minutes at 37° C. Samples were then incubated with heptadecenoylethanolamide (50 μM, Avanti Polar Lipids) at 37° C. for 30 min. The reaction was terminated by addition of cold methanol containing heptadecanoic acid (NuCheck Prep) as internal standard. Samples were then analyzed by UPLC/MS (Acquity, Waters). Heptadecenoic and heptadecanoic acids were eluted on an Acquity UPLC BEH C18 column (50 mm length, 2.1 mm i.d., 1.7 μm pore size, Waters) isocratically at 0.5 mL/min for 1.5 min with a solvent mixture of 95% methanol and 5% water, both containing 0.25% Acetic Acid and 5 mM Ammonium Acetate. The column temperature was 40° C. Electrospray ionization was in the negative mode, capillary voltage was 0.5 kV, cone voltage was […], desolvation temperature was 500° C. N2 was used as drying gas at a flow rate of 1000 L/hour and a temperature of 500° C. The [M−H]^− ion was monitored in the selected-ion monitoring mode (m/z values: heptadecenoic acid 267.37, heptadecanoic acid 269.37). Calibration curves were generated using commercial heptadecenoic acid (NuCheck Prep). Inhibition of NAAA activity was calculated as reduction of heptadecenoic acid in the samples compared to vehicle controls. IC50 values were calculated by non-linear regression analysis of log [concentration]/inhibition curves using GraphPad Prism 5 (GraphPad Software Inc., CA—USA) applying a standard slope curve fitting.

In data set [2] the target is T1, h-NAAA (Homo sapiens (Human), UniProt Q02083). Put plainly: Fluorogenic h-NAAA assay. In kind it is biochemical. The method, then: (§1) The assay was run in Optiplate 96-wells black plates, in a total reaction volume of 200 mL. NAAA protein preparations (4 ng) were pre-incubated for 10 minutes with various concentrations of test compounds or vehicle control (5% DMSO) in 100 mM citrate/phosphate buffer (pH 4.5) containing 3.0 mM DTT, 0.1% Triton X-100, 0.05% BSA, 150 mM NaCl. N-(4-methyl-2-oxo-chromen-7-yl)-hexadecanamide was used as a substrate (5.0 μM) and the reaction carried over for 30 minutes at 37° C. Fluorescence in the samples was quantified in a Perkin Elmer Envision plate reader using an excitation wavelength of 360 nm and emission 460 nm. IC50 values were calculated by non-linear regression analysis of log [concentration]/inhibition curves using GraphPad Prism 5 (GraphPad Software Inc., CA—USA) applying a standard slope curve fitting.
as §1, with “μL.” for “mL.”, “preparation (4.0 μg) was” for “preparations (4 ng) were”, “min” for “minutes”, “The” for “Fluorescence in the”, “were then read” for “was quantified”

Data set [3] concerns the target T1, h-NAAA. The data set can be described thus: UPLC/MS h-NAAA assay. Type of data set: biochemical. The procedure:
NAAA protein preparation (10 μg) was pre-incubated with various concentrations of test compound or vehicle control in 100 mM NaH2PO4, 100 mM Tri Sodium Citrate Dehydrate, 0.1% Triton-X 100, 3 mM DTT, pH 4.5 for 30 min at 37° C. Duplicate samples were then incubated with 50 μM C17:1 10-cis-heptadecenoylethanolamide (Avanti Polar Lipids, Alabaster, Ala.—USA) at 37° C. for 30 minutes. The reaction was terminated by the addition of 0.2 mL of cold methanol containing 1 nmol of heptadecanoic acid (NuChek Prep, Elysian, Minn.—USA) as internal standard. Samples were then analyzed by UPLC/MS. Heptadecenoic and heptadecanoic acids were eluted on an Acquity UPLC BEH C18 column (50 mm length, 2.1 mm i.d., 1.7 μm pore size, Waters) isocratically at 0.5 mL/min for 1.5 min with a solvent mixture of 95% methanol and 5% water, both containing 0.25% Acetic Acid and 5 mM Ammonium Acetate. The column temperature was 40° C. Electrospray ionization was in the negative mode, capillary voltage was 2.7 kV, cone voltage was 45 V, extractor voltage was 3 V. The source temperature was 150° C. with a desolvation temperature of 400° C. N2 was used as drying gas at a cone flow of 100 L/hour and a desolvation flow of […]. The [M−H]-ion was monitored in the selected-ion monitoring mode (m/z values: heptadecenoic acid 267.37, heptadecanoic acid 269.37). Calibration curves were generated using commercial heptadecenoic acid (NuCheck Prep) Inhibition of NAAA activity was calculated as reduction of heptadecenoic acid in the samples compared to vehicle controls. IC50 values were calculated by non-linear regression analysis of log [concentration]/inhibition curves using GraphPad Prism 5 (GraphPad Software Inc., CA—USA) applying a standard slope curve fitting.

The subject of the next data set is DNFB-induced scratching. Put plainly: DNFB-induced scratching in mice. In kind it is in vivo, mouse. The settings on record: topical, single dose. The method, then:
The methods included the following. Dermatitis was produced in mice using 2-4 dinitrofluorobenzene (DNFB) as described by Buckley and Nijkamp (1994), Am J Respir Grit Care Med 149:400-7. Mice were sensitized on two consecutive days with a 0.5% DNFB solution applied to the shaved abdomen. At day 8, the ears were challenged with a 0.2% DNFB solution. Ear thickness was determined by using a micrometer. Scratching was evaluated as number of episodes per 60 minutes period. Data were analysed by ANOVA followed by the Bonferroni's test. See also Hargreaves K, et al (1988), Pain 32: 77-88 for related information.
The methods include the following. Itching in mice was induced with DNFB as previously described. Additional studies were done with 48/80 model (an inducer of mast cell degranulation). 48/80 was given subcutaneously (30 mg per kg). Data were analysed by ANOVA followed by Bonferroni's test for multiple comparisons.

Data set [4] concerns 48/80-induced scratching (mast cell degranulation). Put plainly: Compound 48/80-induced scratching in mice. In kind it is in vivo, mouse. The conditions noted are these: topical, single dose, 48/80 30 mg per kg s.c. The method, then: The methods include the following. Itching in mice was induced with DNFB as previously described. Additional studies were done with 48/80 model (an inducer of mast cell degranulation). 48/80 was given subcutaneously (30 mg per kg).

T1 sequence (Q02083 29-359): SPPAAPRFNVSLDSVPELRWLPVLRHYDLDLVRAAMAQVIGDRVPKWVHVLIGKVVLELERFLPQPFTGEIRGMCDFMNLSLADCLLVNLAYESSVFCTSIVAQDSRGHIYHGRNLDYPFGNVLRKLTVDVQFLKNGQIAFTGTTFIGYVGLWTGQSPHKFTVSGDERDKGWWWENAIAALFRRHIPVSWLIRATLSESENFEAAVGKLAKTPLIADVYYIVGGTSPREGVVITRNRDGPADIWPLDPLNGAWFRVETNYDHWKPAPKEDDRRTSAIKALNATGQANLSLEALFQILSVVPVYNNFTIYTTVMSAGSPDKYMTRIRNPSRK
Sequence of r-NAAA (Q5KTC7 34-362): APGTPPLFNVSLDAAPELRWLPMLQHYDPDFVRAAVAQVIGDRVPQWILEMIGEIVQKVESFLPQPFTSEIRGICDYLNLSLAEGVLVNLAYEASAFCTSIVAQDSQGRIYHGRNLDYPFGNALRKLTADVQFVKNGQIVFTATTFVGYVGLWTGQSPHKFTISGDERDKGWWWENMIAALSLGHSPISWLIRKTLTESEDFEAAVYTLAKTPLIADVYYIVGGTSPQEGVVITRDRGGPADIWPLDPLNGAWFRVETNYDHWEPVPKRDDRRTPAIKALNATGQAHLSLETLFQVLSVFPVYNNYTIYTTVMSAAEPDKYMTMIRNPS

Regarding `O=C(N[C@H]1COC1=O)OCCCCCc1ccccc1`, the half-life at 10 μM in data set [1] was 23 min.
As to `CC[C@H]1OC(=O)[C@@H]1NC(=O)OCCCCCc1ccccc1` (relative stereo) [Example 47, 5-Phenylpentyl-N-[(2R*,3R*)-2-ethyl-4-oxo-oxetan-3-yl]-carbamate], the inhibition at 3 µM at r-NAAA is 92%. This molecule also showed a 50% inhibitory concentration (IC50) against h-NAAA [2] of 4 nM.
For `CC[C@@H]1OC(=O)[C@@H]1NC(=O)OCCCCCc1ccccc1` (relative stereo) [Example 49, 5-Phenylpentyl-N-[(2S*,3R*)-2-ethyl-4-oxo-oxetan-3-yl]-carbamate], in that order: 89% and 9 nM.
For `CC(C)[C@H]1OC(=O)[C@@H]1NC(=O)OC(C)(C)CCCCc1ccccc1` (relative stereo) [Example 55, (1,1-Dimethyl-5-phenyl-pentyl)-N-[(2R*,3R*)-2-isopropyl-4-oxo-oxetan-3-yl]-carbamate], in that order: 98% and 12 nM.
As for `CC(C)(C)[C@H]1OC(=O)[C@@H]1NC(=O)OCCCCCc1ccccc1` (relative stereo) [Example 56, 5-Phenylpentyl-N-[(2R*,3R*)-2-tert-butyl-4-oxo-oxetan-3-yl]-carbamate], the inhibition at 3 µM at r-NAAA turned out to be 75%. Moreover, on h-NAAA [2], the IC50 came to 267 nM.
For `CC(C)(C)[C@@H]1OC(=O)[C@@H]1NC(=O)OCCCCCc1ccccc1` (relative stereo) [Example 58, 5-Phenylpentyl-N-[(2S*,3R*)-2-tert-butyl-4-oxo-oxetan-3-yl]-carbamate], in that order: 67% and 278 nM.
For the molecule `C[C@@H]1OC(=O)[C@@H]1NC(=O)OCCCCC1CCCCC1` [Example 19, 4-cyclohexylbutyl-N-[(2S,3R)-2-methyl-4-oxo-oxetan-3-yl]-carbamate], the 50% inhibitory concentration (IC50) on r-NAAA stood at 20 nM; against h-NAAA [3] it was 9 nM; against h-NAAA [2], 8 nM.
As to `C[C@H]1C[C@H]2[C@@H]3CCC4=CC(=O)C=C[C@]4(C)[C@@]3(F)[C@@H](O)C[C@]2(C)[C@@]1(O)C(=O)CCl` [clobetasol, reference compound], the DNFB-induced scratching entry with DNFB-induced scratching is on record as “increased scratching”. In data set [4], the 48/80-induced scratching result is “without effect”.
For `C[C@@H]1C[C@H]2[C@@H]3CCC4=CC(=O)C=C[C@]4(C)[C@@]3(F)[C@@H](O)C[C@]2(C)[C@@]1(O)C(=O)CO` [dexamethasone, reference compound] the same measures were “increased scratching” and “without effect”.
In the case of `CC(CN1c2ccccc2Sc2ccccc21)N(C)C` (centres unmarked) [promethazine, reference compound], in the data set with DNFB-induced scratching, the DNFB-induced scratching entry is reported as “without effect”. Further, in data set [4], the 48/80-induced scratching result is given as “effective”.

The term IC50 denotes the concentration needed to halve the response being measured. A lower IC50 goes with higher potency.

(Values after patent US9353075B2, “Disubstituted beta-lactones as inhibitors of N-acylethanolamine acid amidase (NAAA)” (The Regents of the University of California, priority 2011, dated 2016).)
